Results on one compound are retold here after article PMC7686382, “Bioassay-based Corchorus capsularis L. leaf-derived β-sitosterol exerts antileishmanial effects against Leishmania donovani by targeting trypanothione reductase” (Scientific Reports, 2020).

The target of the assay is T1, Leishmania donovani trypanothione reductase (LdTryR) (Leishmania donovani, UniProt P39050).
T1 construct: gene TPR; recombinant LdTryR
Description: spectrophotometric NADPH oxidation assay ([…] nm) on recombinant enzyme, Lineweaver-Burk kinetics. In kind it is biochemical.

T1 sequence (P39050 whole entry): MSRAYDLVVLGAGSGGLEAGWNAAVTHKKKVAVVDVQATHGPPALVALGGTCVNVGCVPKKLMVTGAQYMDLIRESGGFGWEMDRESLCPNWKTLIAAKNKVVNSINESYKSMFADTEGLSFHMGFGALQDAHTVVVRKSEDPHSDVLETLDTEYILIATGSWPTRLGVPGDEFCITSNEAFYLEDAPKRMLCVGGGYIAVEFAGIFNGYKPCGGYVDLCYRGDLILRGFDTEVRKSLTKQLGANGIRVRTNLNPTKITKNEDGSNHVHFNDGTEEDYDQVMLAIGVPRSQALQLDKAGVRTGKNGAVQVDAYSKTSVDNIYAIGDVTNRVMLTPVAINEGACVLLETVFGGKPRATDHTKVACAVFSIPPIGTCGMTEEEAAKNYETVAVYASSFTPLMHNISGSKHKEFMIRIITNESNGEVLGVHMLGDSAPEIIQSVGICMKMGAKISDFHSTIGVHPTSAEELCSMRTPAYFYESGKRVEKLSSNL

In general, Ki refers to a dissociation constant, usually derived from enzyme kinetics or from competition with a known ligand. `CC[C@H](CC[C@@H](C)[C@H]1CC[C@H]2[C@@H]3CC=C4C[C@@H](O)CC[C@]4(C)[C@H]3CC[C@]12C)C(C)C` [β-sitosterolCCL, β-sitosterol]: the Ki turned out to be 8.43 µM.
